From US20090263397A1, “Combination anti-cancer therapy” (priority 2007, published 2009)
Values joined by “and” are separate entries in the source; they are usually repeats but may differ in a detail not shown here. Equal entries are not always repeated. “Also recorded” adds a separate entry of the source.

Assays:
[1] = tested on: A673 tumor cells; experiment: Caspase 3/7 Glo apoptosis assay, A673; type: cell-based, human; conditions: in the presence of doxorubicin (333 nM or 1 uM), listed as OSI-906
Description: FIG. 3: OSI-906 synergizes with doxorubicin to inhibit cell growth and survival in A673 ES (Ewing's Sarcoma) tumor cells. A. Effect of varying concentrations of doxorubicin, in the presence and absence of 5 μM OSI-906, on the proliferation of A673 tumor cells. Proliferation data were collected 48 hours after dosing and realized using the Cell Titer Glo™ assay (Promega). The dotted line in the plot represents the calculated theoretical expectation if the combination was additive in nature and was determined using the Bliss model for additivity. B. Effect of varying concentrations of OSI-906 (0, 300 nM, and 1 μM) on the induction of apoptosis for A673 tumor cells, in the presence or absence of 333 nM doxorubicin. Apoptosis was determined by measuring caspase 3/7 activity (Caspase GlO™, Promega), and measurements were captured 48 hours after dosing.
FIG. 5: OSI-906 has the potential to promote greater synergy with doxorubicin in ES tumor cells than neutralizing IGF-1R antibodies. Effect of varying concentrations of OSI-906 (0, 300 nM, 1 μM, and 3 μM) or the IGF-1R neutralizing antibody α-IR3 (10 ug/ml) on the induction of apoptosis for A673 tumor cells, in the presence or absence of 333 nM or 1 uM doxorubicin. Apoptosis was determined by measuring caspase 3/7 activity (Caspase GlO™, Promega), and measurements were captured 24 hours after dosing.

[2] = tested on: MDA-1186 tumor cells; experiment: Caspase 3/7 Glo apoptosis assay, MDA-1186; type: cell-based, human
Description: The effect of varying concentrations of OSI-906 (0, 0.3 nM, 1 uM, 3 μM, and 5 μM) on apoptosis in the presence or absence of Taxol (10 nM) or cisplatin (50 μM) for the MDA-1186 SCCHN tumor cell line. Apoptosis measurements were determined by measuring caspase 3/7 activity (Caspase Glo, Promega) and were captured 24 and 48 hours after dosing.
(§1) Measurement of apoptosis: Induction of apoptosis as measured by increased Caspase 3/7 activity was determined using the Caspase 3/7 Glo assay (Promega Corporation, Madison, Wis.). Cell lines were seeded at a density of 3000 cells per well in a 96-well plate. 24 hours after plating cells were dosed with varying concentrations of drug, either as a single agent or in combination. The signal for Caspase 3/7 Glo was determined 24 hours after dosing. The caspase 3/7 activity was normalized to cell number per well, using a parallel plate treated with Cell Titer Glo (Promega Corporation, Madison, Wis.). Signal for each well was normalized using the following formula: Caspase 3/7 Glo luminescence units/Cell Titer Glo fraction of DMSO control.

[3] = tested on: Akt phosphorylation (pAkt-S473); experiment: Western blotting of Akt phosphorylation, MDA-MB-231
[4] = tested on: MDA-MB-231 cells; experiment: Caspase 3/7 Glo apoptosis assay, MDA-MB-231; type: cell-based, human; conditions: 24 hours
Description: Apoptosis measurements were captured 24 hours after dosing, and apoptosis was assayed by measurement of caspase 3/7 activity. Measurement of apoptosis: Induction of apoptosis as measured by increased Caspase 3/7 activity was determined using the Caspase 3/7 Glo assay (Promega Corporation, Madison, Wis.). Cell lines were seeded at a density of 3000 cells per well in a 96-well plate. 24 hours after plating cells were dosed with varying concentrations of drug, either as a single agent or in combination. The signal for Caspase 3/7 Glo was determined 24 hours after dosing. The caspase 3/7 activity was normalized to cell number per well, using a parallel plate treated with Cell Titer Glo (Promega Corporation, Madison, Wis.). Signal for each well was normalized using the following formula: Caspase 3/7 Glo luminescence units/Cell Titer Glo fraction of DMSO control.

[5] = tested on: IGF-1R; experiment: Proteome Profiler RTK capture array, pIGF-1R in A673; conditions: for phosphorylation of IGF-1R, single agent: OSI-906 3 μM, Doxorubicin 500 nM, MAB391 10 ug/ml
Description: (§2) Effect of OSI-906 (3 μM), Doxorubicin (500 nM), the combination of OSI-906+ doxorubicin, MAB391 (10 ug/ml), and the combination of MAB391+ doxorubicin on the phosphorylation states for IR and IGF-1R. Phosphorylation of IR and IGF-1R was realized using the Proteome Profiler™ RTK capture Array (R & D Systems).
(§3) Proteome profiler arrays housing 42 different RTKs were purchased from R&D systems (Minneapolis, Minn.) and processed according to the manufacturer's protocol. RTKs included on the array include: HER1, HER2, HER3, HER4, FGFR1, FGFR2a, FGFR3, FGFR4, IR, IGF-1R, Ax1, Dtk, Mer, HGFR, MSPR, PDGFRα, PDGFRβ, SCFR, Flt-3, M-CSFR, c-Ret, ROR1, ROR2, Tie-1, Tie-2, TrkA, TrkB, TrkC, VEGFR1, VEGFR2, VEGFR3, MuSK, EphA1, EphA2, EphA3, EphA4, EphA6, EphA7, EphB1, EphB2, EphB4, EphB6. This array was used as an RTK capture assay for determining pIGF-1R levels.

[6] = tested on: SK-ES-1 tumor cells; experiment: Cell Titer Glo overall cell growth, SK-ES-1; type: cell-based, human
Description: Measurement of Cell Proliferation: Cell proliferation was determined using the Cell Titer Glo assay (Promega Corporation, Madison, Wis.). […] Using parallel replicate plates, the signal for Cell Titer Glo was determined 24 hours after dosing.

[7] = tested on: Erk; experiment: Western blotting of Erk phosphorylation, A673; conditions: 24 hour; for MAPK (Erk) pathway activity / activation state, single agent: OSI-906 3 uM, Doxorubicin 500nM or 1 μM
[8] = tested on: H322 tumor cells; experiment: Caspase 3/7 Glo apoptosis assay, H322; type: cell-based, human
Description: (§4) The combination of varying concentrations of OSI-906 (30 nM-3 μM) with 3 nM Taxol on the induction of apoptosis at 24 hours post dosing (Caspase GlO™, Promega) was determined for a panel of 5 NSCLC tumor cell lines (H460, H292, H322, H358, and Calu6).
Measurement of apoptosis: Induction of apoptosis as measured by increased Caspase 3/7 activity was determined using the Caspase 3/7 Glo assay (Promega Corporation, Madison, Wis.). Cell lines were seeded at a density of 3000 cells per well in a 96-well plate. 24 hours after plating cells were dosed with varying concentrations of drug, either as a single agent or in combination. The signal for Caspase 3/7 Glo was determined 24 hours after dosing. The caspase 3/7 activity was normalized to cell number per well, using a parallel plate treated with Cell Titer Glo (Promega Corporation, Madison, Wis.). Signal for each well was normalized using the following formula: Caspase 3/7 Glo luminescence units/Cell Titer Glo fraction of DMSO control. All graphs were generated using PRISM® software (Graphpad Software, San Diego, Calif.).

[9] = tested on: Akt; experiment: Western blotting of Akt phosphorylation, A673; conditions: 24 hour; for Akt pathway activity / activation state, single agent: OSI-906 3 uM, Doxorubicin 500nM or 1 μM
[10] = tested on: H460 tumor cells; experiment: Cell Titer Glo overall cell growth, H460; type: cell-based, human
Description: B. Effect of varying concentrations of taxol, alone or in the presence of 5 μM OSI-906 on overall cell growth. Overall cell growth was determined by the Cell Titer Glo™ assay (Promega) and measured 72 hours after dosing. The dotted line represents the theoretical expectation for additivity and was calculated using the Bliss model for additivity. Measurement of Cell Proliferation: Cell proliferation was determined using the Cell Titer Glo assay (Promega Corporation, Madison, Wis.). Tumor cells were seeded at a density of 3000 cells per well in a 96-well plate. 24 hours after plating cells were dosed with varying concentrations of drug, either as a single agent or in combination. Using parallel replicate plates, the signal for Cell Titer Glo was determined 24 hours after dosing.

[11] = tested on: H292 tumor cells; experiment: Caspase 3/7 Glo apoptosis assay, H292; type: cell-based, human; conditions: OSI-906 30 nM-3 μM with 50 uM cisplatin, 24 hours, compared with single agents
Description: The combination of varying concentrations of OSI-906 (30 nM-3 μM) with 50 uM cisplatin on the induction of apoptosis at 24 hours post dosing (Caspase Glo, Promega) was determined for a panel of 5 NSCLC tumor cell lines (H460, H292, H322, H358, and Calu6). The fold induction in apoptosis greater than the sums achieved by the single agents is noted in the table.
as §1

[12] = tested on: IR; experiment: Proteome Profiler RTK capture array, pIR in A673; type: cell-based, human; conditions: for phosphorylation of IR, single agent: OSI-906 3 μM, Doxorubicin 500 nM, MAB391 10 ug/ml
Description: as §2, §3

[13] = tested on: H460 tumor cells; experiment: Caspase 3/7 Glo apoptosis assay, H460; type: cell-based, human; conditions: 24 hours
Description: as §4
A. Effect of varying concentrations of OSI-906, alone or in the presence of 12 nM Taxol, on apoptosis for H460 tumor cells. Apoptosis was measured 24 hours after dosing and determined by caspase 3/7 activity (Caspase GlO™, Promega). […] The dotted line represents the theoretical expectation for additivity and was calculated using the Bliss model for additivity.
as §1

[14] = tested on: A673 tumor cells; experiment: Cell Titer Glo overall cell growth, A673; type: cell-based, human; conditions: 5 μM OSI-906, 48 hours, versus Bliss additivity
Description: A. Effect of varying concentrations of doxorubicin, in the presence and absence of 5 μM OSI-906, on the proliferation of A673 tumor cells. Proliferation data were collected 48 hours after dosing and realized using the Cell Titer Glo™ assay (Promega). The dotted line in the plot represents the calculated theoretical expectation if the combination was additive in nature and was determined using the Bliss model for additivity. […] Measurement of Cell Proliferation: Cell proliferation was determined using the Cell Titer Glo assay (Promega Corporation, Madison, Wis.). Tumor cells were seeded at a density of 3000 cells per well in a 96-well plate. 24 hours after plating cells were dosed with varying concentrations of drug, either as a single agent or in combination. Using parallel replicate plates, the signal for Cell Titer Glo was determined 24 hours after dosing.

[15] = tested on: H358 tumor cells; experiment: Caspase 3/7 Glo apoptosis assay, H358; type: cell-based, human; conditions: Taxol 3 nM, 24 hours
Description: as §4
The effect of varying concentrations of OSI-906 (0, 0.3 nM, 1 μM, 3 μM, and 5 μM) on apoptosis in the presence or absence of Taxol (3 nM) for H292 and H358 NSCLC tumor cell lines. Apoptosis measurements were determined by measuring caspase 3/7 activity (Caspase GlO™, Promega) and were captured 24 hours after dosing.
as §1

[16] = tested on: SK-ES-1 tumor cells; experiment: Caspase 3/7 Glo apoptosis assay, SK-ES-1; type: cell-based, human; conditions: in the presence of 1 μM doxorubicin, 24 hours
Description: Effect of varying concentrations of OSI-906 (0, 300 nM, 1 μM, 3 μM, or 5 μM) on the induction of apoptosis for SK-ES-1 tumor cells, in the presence or absence of 1 μM doxorubicin. Apoptosis was determined by measuring caspase 3/7 activity (Caspase GlO™, Promega), and measurements were captured 24 hours after dosing. Measurement of apoptosis: Induction of apoptosis as measured by increased Caspase 3/7 activity was determined using the Caspase 3/7 Glo assay (Promega Corporation, Madison, Wis.). Cell lines were seeded at a density of 3000 cells per well in a 96-well plate. 24 hours after plating cells were dosed with varying concentrations of drug, either as a single agent or in combination. The signal for Caspase 3/7 Glo was determined 24 hours after dosing. The caspase 3/7 activity was normalized to cell number per well, using a parallel plate treated with Cell Titer Glo (Promega Corporation, Madison, Wis.). Signal for each well was normalized using the following formula: Caspase 3/7 Glo luminescence units/Cell Titer Glo fraction of DMSO control.

[17] = tested on: IGF-1R; experiment: RTK capture array, pIGF-1R in H358 cells; conditions: taxol 100 nM, 24 hours
[18] = tested on: IGF-1R complex; experiment: phosphorylation of the IGF-1R complex in MDA-1186 (data not shown); type: cell-based, human
[19] = tested on: IGF-1R; experiment: In vivo pharmacodynamic study, pIGF-1R in H292 xenografts; conditions: mice bearing H292 xenografts; 24 mg/kg paclitaxel; 24 hours
Description: B. Mice bearing H292 xenografts were treated with 24 mg/kg paclitaxel for 24 hours prior to harvesting tumors. Tumors were profiled for pIGF-1R levels using the RTK capture array, in duplicate. Four separate animals were used: Control (Ctrl) A1; Control (Ctrl) A2; Paclitaxel-treated A1; and Paclitaxel-treated A2.
Proteome profiler arrays housing 42 different RTKs were purchased from R&D systems (Minneapolis, Minn.) and processed according to the manufacturer's protocol. […] This array was used as an RTK capture assay for determining pIGF-1R levels.
Female athymic nude nu/nu CD-1 mice (6-8 wks, 22-29 g) were obtained from Charles River Laboratories (Wilmington, Mass.). Animals were allowed to acclimate for a minimum of one week prior to initiation of a study. Throughout the studies, animals were allowed sterile rodent chow and water ad libitum, and animals were maintained under specific pathogen free conditions.
NCI—H292 NSCLC tumor cells were harvested from cell culture flasks during exponential cell growth, washed twice with sterile PBS, counted and resuspended in PBS to a suitable concentration before s.c. implantation on the right flank of female nu/nu CD-1 mice. Tumors were established to 200+/−50 mm in size before randomization into treatment groups. Paclitaxel or cisplatin were administered at the indicated dose, and tumors from treated mice were harvested at 24 hours after dosing. […]

[20] = tested on: IGF-1R; experiment: RTK capture array, pIGF-1R in H292 cells; type: cell-based, human
Description: Also shown is the effect of taxol (100 nM) on IGF-1R phosphorylation for H292 and H358 tumor cells. Phosphorylation was captured 24 hours after dosing with taxol and realized using the Proteome Profiler™ RTK capture Array (R & D Systems).
A. Effect of varying concentrations of taxol on pIGF-1R for H292 tumor cells. pIGF-1R was measured 24 hours after dosing and realized using the proteome profiler RTK capture array (R & D Systems).
A. H292 NSCLC tumor cells were treated with 30 nM paclitaxel for varying time points, alone or in the presence of 3 μM OSI-906. The phosphorylation of IGF-1R was determined by an RTK capture array, in duplicate (pIGF-1R=phosphorylated IGF-1R).
as §3

[21] = tested on: Akt; experiment: Western blotting of Akt phosphorylation, H292; type: cell-based, human; conditions: H292 in vitro; 30 nM paclitaxel; 2, 6, 24 hours
Description: H292 cells were treated with 30 nM paclitaxel (in the presence and absence of 3 μM OSI-906), and the phosphorylation state for Akt was determined by Western blotting.

**Q.** With `CC1(O)CC(c2nc(-c3ccc4ccc(-c5ccccc5)nc4c3)c3c(N)nccn23)C1` (stereo not drawn) [Compound D, cis-3-[8-amino-1-(2-phenyl-quinolin-7-yl)-imidazo[1,5-a]pyrazin-3-yl]-1-methyl-cyclobutanol] as the compound, how does the “apoptosis (caspase 3/7 activity), combination with doxorubicin” value [1] read?
**A.** synergistic promotion of apoptosis; also recorded: synergistic increase in doxorubicin-mediated apoptosis; also recorded: extent of cooperativity appears to be greater at higher concentrations of OSI-906, i.e. 3 μM, than that achieved maximally by a-IR3; also recorded: synergistic induction of apoptosis

**Q.** What about the “apoptosis, single agent” value ([2]; OSI-906 alone) of the same compound?
**A.** did not achieve significant apoptosis as a single agent

**Q.** And the “apoptosis, combination with taxol” value ([2]; Taxol 10 nM, 24 and 48 hours, listed as OSI-906)?
**A.** promoted a dose dependent increase in apoptosis; also recorded: synergistic induction of apoptosis

**Q.** And the “Akt phosphorylation (pAkt-S473), combination with doxorubicin” value ([3]; combination of doxorubicin and Compound D)?
**A.** efficacious at inhibiting the increase in Akt phosphorylation provoked by doxorubicin

**Q.** What about the “induction in apoptosis (caspase 3/7 activity), combination” value ([4]; 1 μM doxorubicin and 0.3 μM compound D) of the same compound?
**A.** about 3 fold

**Q.** What about the “phosphorylation of IGF-1R, single agent” value [5] of the same compound?
**A.** achieves inhibition for both pIR and pIGF-1R

**Q.** And the “phosphorylation of IGF-1R, combination with doxorubicin” value ([5]; with Doxorubicin 500 nM)?
**A.** blocked upon co-treatment with OSI-906

**Q.** And the “overall cell growth, combination with doxorubicin” value [6]?
**A.** synergistic promotion of apoptosis and inhibition of overall cell growth

**Q.** What about the “Erk activation state, co-treatment with doxorubicin” value ([7]; OSI-906 3 uM plus doxorubicin) of the same compound?
**A.** gain in activity can be inhibited upon co-treatment with OSI-906

**Q.** And the “MAPK (Erk) pathway activity / activation state, single agent” value [7]?
**A.** achieves inhibition of both pathways

**Q.** What about the “apoptosis gain, combination with taxol” value ([8]; OSI-906 30 nM-3 μM with 3 nM Taxol, 24 hours) of the same compound?
**A.** > 2 fold

**Q.** What about the “induction of apoptosis, combination with paclitaxel” value ([8]; paclitaxel and OSI-906) of the same compound?
**A.** synergistic induction of apoptosis

**Q.** What about the “Akt activation state, co-treatment with doxorubicin” value ([9]; OSI-906 3 uM plus doxorubicin) of the same compound?
**A.** gain in activity can be inhibited upon co-treatment with OSI-906

**Q.** What about the “Akt pathway activity / activation state, single agent” value [9] of the same compound?
**A.** achieves inhibition of both pathways

**Q.** And the “overall cell growth, combination with taxol” value ([10]; 5 μM OSI-906 with taxol, 72 hours, versus Bliss additivity)?
**A.** greater than additive inhibition of overall cell growth

**Q.** And the “overall cell growth, single agent” value ([10]; OSI-906 alone)?
**A.** fails to promote apoptosis or significantly inhibit cell growth

**Q.** What about the “increase in apoptosis (apoptosis gain), combination with cisplatin” value [11] of the same compound?
**A.** > 3 fold and > 2 fold

**Q.** And the “phosphorylation of IR, single agent” value [12]?
**A.** achieves inhibition for both pIR and pIGF-1R

**Q.** What about the “phosphorylation of IR, combination with doxorubicin” value ([12]; with Doxorubicin 500 nM) of the same compound?
**A.** blocked upon co-treatment with OSI-906

**Q.** What about the “apoptosis, single agent” value ([13]; OSI-906 alone) of the same compound?
**A.** fails to promote apoptosis or significantly inhibit cell growth

**Q.** And the “apoptosis, combination with taxol” value ([13]; in the presence of 12 nM Taxol, listed as OSI-906)?
**A.** synergistic promotion of apoptosis and inhibition of cell survival; also recorded: increase the pro-apoptotic effects of doxorubicin

**Q.** What about the “overall cell growth, combination with doxorubicin” value [14] of the same compound?
**A.** synergistic promotion of apoptosis and inhibition of overall cell growth

**Q.** And the “synergy for the combination of OSI-906 and taxol (apoptosis)” value [15]?
**A.** observed for H292, but not H358

**Q.** And the “apoptosis (caspase 3/7 activity), combination with doxorubicin” value [16]?
**A.** synergistic promotion of apoptosis

**Q.** How did the “Akt phosphorylation (pAkt-S473), single agent” value ([3]; 24 hours) turn out when `COc1cccc2c1C(=O)c1c(O)c3c(c(O)c1C2=O)C[C@@](O)(C(=O)CO)C[C@@H]3O[C@H]1C[C@H](N)[C@H](O)[C@H](C)O1` [doxorubicin, reference compound] was run?
**A.** promotes an increase in Akt phosphorylation

**Q.** And the “induction in apoptosis (caspase 3/7 activity), single agent” value ([4]; doxorubicin alone)?
**A.** only a small induction in apoptosis

**Q.** And the “phosphorylation of IGF-1R, single agent” value [5]?
**A.** promotes an upregulation of the phosphorylation state for both IR and IGF-1R

**Q.** What about the “MAPK (Erk) pathway activity / activation state, single agent” value [7] of the same compound?
**A.** increase in the activation states for both Akt and Erk

**Q.** What about the “Akt pathway activity / activation state, single agent” value [9] of the same compound?
**A.** increase in the activation states for both Akt and Erk

**Q.** And the “phosphorylation of IR, single agent” value [12]?
**A.** promotes an upregulation of the phosphorylation state for both IR and IGF-1R

**Q.** Which results are given for `CC(=O)O[C@H]1C(=O)[C@@]2(C)[C@H]([C@H](OC(=O)c3ccccc3)[C@]3(O)C[C@H](OC(=O)[C@H](O)[C@@H](NC(=O)c4ccccc4)c4ccccc4)C(C)=C1C3(C)C)[C@]1(OC(C)=O)CO[C@@H]1C[C@@H]2O` [taxol, paclitaxel]?
**A.** IGF-1R phosphorylation [17]: Only in H292 tumor cells did taxol promote an increase in IGF-1R phosphorylation; phosphorylation of the IGF-1R complex [18]: promote phosphorylation of the IGF-1R complex; pIGF-1R levels in tumors [19]: upregulated; IGF-1R phosphorylation ([20]; H292, taxol 100 nM, 24 hours): promote an increase in IGF-1R phosphorylation; pIGF-1R over time ([20]; H292 in vitro, 30 nM paclitaxel, 2 and 6 hours): time-dependent increase in pIGF-1R; EC50 ([20]; Homo sapiens, NCI-H292, H292, 24 hours after dosing, read-out: EC50 for promoting phosphorylation of IGF-1R): 10 nM; pAkt over time [21]: modest increase in the Akt survival pathway, however this pathway is further driven upon prolonged 6 hour exposure to paclitaxel
